The subject of this test is HIV-1 (H9IIIB strain). In words: Cell-Based HIV Infection Assay Using a Reporter (MT4-GFP cells). Conditions: Human immunodeficiency virus 1, inflection point (IP) of viral growth inhibition; MT4-GFP cells infected with HIV-1 H9IIIB; 50% normal human serum; mean of at least two independent experiments; read-out: Cell Based IP (50% NHS). The gist of the method: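 Inflection point from a 4-parameter curve of % viral growth inhibition, normalised to DMSO and triple-drug controls, using the 48 h/24 h ratio of GFP-positive cells (R0). MT4-GFP cells pre-infected 24 h with HIV-1 H9IIIB at low MOI; compounds tested in 50% normal human serum, 0.4% DMSO; mean of ≥2 experiments.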
For the molecule `COCCN[C@H](C(=O)N[C@H]1CCC[C@@H]1CC[C@H]1CN[C@@H]2CCCS(=O)(=O)N1C2)[C@@H](c1ccc(Cl)cc1)C1CCOC(C)(C)C1` (stereo partly drawn) [Example 182, (βR)-4-chloro-β-(2,2-dimethyltetrahydro-2H-pyran-4-yl)-N-[(1S,2R)-2-{2-[(6R,9S)-2,2-dioxido-2-thia-1,7-diazabicyclo[4.3.1]dec-9-yl]ethyl}cyclopentyl]-Nα-(2-methoxyethyl)-L-phenylalaninamide], the EC50 amounted to 70 nM.

Turning to `CC[C@H](C)N[C@H](C(=O)N[C@H]1CCC[C@@H]1CC[C@H]1CN[C@@H]2CCCS(=O)(=O)N1C2)[C@@H](c1ccc(Cl)cc1)C1CCOC(C)(C)C1` (stereo partly drawn) [Example 183, (βR)-4-chloro-β-(2,2-dimethyltetrahydro-2H-pyran-4-yl)-N-[(1S,2R)-2-{2-[(6R,9S)-2,2-dioxido-2-thia-1,7-diazabicyclo[4.3.1]dec-9-yl]ethyl}cyclopentyl]-Nα-[(1S)-1-methylpropyl]-L-phenylalaninamide], the EC50 is 1300 nM.

Regarding `CC1(C)CC([C@H](c2ccc(Cl)cc2)[C@H](NCCCC(F)(F)F)C(=O)N[C@H]2CCC[C@@H]2CC[C@H]2CN[C@@H]3CCCS(=O)(=O)N2C3)CCO1` (stereo partly drawn) [Example 184, (βR)-4-chloro-β-(2,2-dimethyltetrdhydro-2H-pyran-4-yl)-N-[(1S,2R)-2-{2-[(6R,9S)-2,2-dioxido-2-thia-1,7-diazabicyclo[4.3.1]dec-9-yl]ethyl}cyclopentyl]-Nα-(4,4,4-trifluorobutyl)-L-phenylalaninamide], the EC50 was 330 nM.

Regarding `N[C@H](C(=O)Nc1cccc(F)c1CC[C@H]1CN[C@@H]2CCCS(=O)(=O)N1C2)C1(c2ccc(Cl)cc2)CCNCC1` [Example 185, (2S)-2-amino-2-[4-(4-chlorophenyl)piperidin-4-yl]-N-(2-{2-[(6R,9S)-2,2-dioxido-2-thia-1,7-diazabicyclo[4.3.1]dec-9-yl]ethyl}-3-fluorophenyl)ethanamide], the EC50 came to 3300 nM.

On to `CS(=O)(=O)N1CCC([C@H](c2ccc(F)cc2)[C@H](N)C(=O)Nc2cccc(F)c2CC[C@H]2CN[C@@H]3CCCS(=O)(=O)N2C3)CC1` [Example 186, (βR)-N-(2-{2-[(6R,9S)-2,2-dioxido-2-thia-1,7-diazabicyclo[4.3.1]dec-9-yl]ethyl}-3-fluorophenyl)-4-fluoro-β-[1-(methylsulfonyl)piperidin-4-yl]-L-phenylalaninamide], for which the EC50 stood at 33 nM.

Regarding `COC(=O)N[C@H](C(=O)Nc1cccc(F)c1CC[C@H]1CN[C@@H]2CCCS(=O)(=O)N1C2)[C@@H](c1ccc(Cl)cc1)[C@H]1CC[C@H](OC)CC1` [Example 187, methyl {(1S,2R)-2-(4-chlorophenyl)-1-[(2-{2-[(6R,9S)-2,2-dioxido-2-thia-1,7-diazabicyclo[4.3.1]dec-9-yl]ethyl}-3-fluorophenyl)carbamoyl]-2-[(1r,4R)-4-methoxycyclohexyl]ethyl}carbamate], the EC50 was found to be 3.2 nM.

As for `C[C@@H]1CC([C@H](c2ccc(F)cc2)[C@H](N)C(=O)Nc2cc(F)ccc2CC[C@H]2CN[C@@H]3CCCS(=O)(=O)N2C3)C[C@H](C)O1` (stereo partly drawn) [Example 188, (βR)-β-[(2S,2R)-2,6-dimethyltetrahydro-2H-pyran-4-yl]-N-(2-{2-[(6R,9S)-2,2-dioxido-2-thia-1,7-diazabicyclo[4.3.1]dec-9-yl]ethyl}-5-fluorophenyl)-4-fluoro-L-phenylalaninamide], the EC50 came to 25 nM.

Turning to `CO[C@H]1CC[C@H]([C@H](c2ccc(F)cc2)[C@H](N)C(=O)N[C@H]2CCCC[C@@H]2CC[C@H]2CN[C@@H]3CCCS(=O)(=O)N2C3)CC1` [Example 189, (βR)-N-[(1S,2R)-2-{2-[(6R,9S)-2,2-dioxido-2-thia-1,7-diazabicyclo[4.3.1]dec-9-yl]ethyl}cyclohexyl]-4-fluoro-β-[(1r,4R)-4-methoxycyclohexyl]-L-phenylalaninamide], the EC50 stood at 45 nM.
